Here are results for 6 compounds from patent US20240409944A1, “COMPOSITIONS AND METHODS FOR THE INHIBITION OF TUMOR METASTASIS AND HORIZONTAL GENE TRANSFER” (The Regents of the University of Colorado, a body corporate, priority 2021, published 2024).

In experiment [1] the test system is RPE1-Venus-Parkin and MDA-MB-231-H2B-mCherry co-culture. As to the kind of experiment: Intercellular gene transfer in co-culture, flow cytometric analysis. In kind it is cell-based.
Experiment [2] has as its system F-actin. As to the kind of experiment: F-actin stability (Alexa Fluor 594 Phalloidin). The note with it: co-cultured RPE1-VEP and MDA-MB-231-H2BmCherry. In kind it is cell-based. The method, then:
Immunofluorescence microscopy was performed as described previously.

The subject of experiment [3] is MDA-MB-231-H2B-mCherry and RPE1-Venus-Parkin co-culture. As to the kind of experiment: Cell entrapment (cell-in-cell structure formation), live-cell imaging. The note with it: inhibitor treatment.
Experiment [4] deals with MDASC43 & RPE1-VEP co-culture. The experiment in a line: 48-hour live cell imaging of CIC structures, MDASC43 co-culture. The conditions noted are these: 10 μM Doxorubicin, 100 μM Hygromycin B; for effect on number/frequency of CIC structures / average duration of CIC structures / time at which CIC structures were concentrated: 20 μM Actinomycin D; for average duration of CIC structures / time at which CIC structures were concentrated: alone or combined. It is filed as cell-based.

Experiment [5] has as its system HUVEC and MDA-MB-231-H2B-mCherry co-culture. The experiment in a line: Live cell imaging of CIC structures, HUVEC co-culture. The conditions noted are these: preliminary. In kind it is cell-based, Human.
The mark [6] stands for this setting: compound present in the co-culture, Hygromycin B 100 μM.

Entries after “also recorded” stand apart in the source; their conditions may differ. Where two headings read alike, the source gives them in different places. *1 amine or outer side, *2 acyl side, *3 side chain or, on linkers, in order; H or OH if unused. Where a SMILES comes first, the peptide text is derived from it. Bridges are numbered along the chain shown (N, C = ends). Roman numbers before positions name the chains, in order. [ ]: non-standard residue; d: D form. Actinocin(9to1) = Cc1c2oc3c(C)ccc(C(=O)[*:1])c3nc-2c(C(=O)[*:2])c(N)c1=O; NMeV = CN[C@H](C(=O)O)C(C)C; Sar = CNCC(=O)O

For `COc1ccc(C2CC(c3ccccc3)=NN2c2ccc(S(N)(=O)=O)cc2)cc1` (centres unmarked) [ML141], in experiment [1] (setting [6]), the “effect on gene transfer” value is “decreased; also recorded: significant effect”.

Turning to `C/C1=C/C(=O)O[C@@H]2C[C@@H](CC[C@H](C)/C=C\CC1)O[C@@](O)([C@@H]1CSC(=O)N1)C2` [Latrunculin B], in experiment [1], the “concentration that resulted in the lowest percentage of gene transfer to RPE cells” value came to 3 µM. Further, the “effect on gene transfer” value in experiment [1] (setting [6]) is “significantly decreased”. For the same compound, the F-actin levels result in experiment [2] is “significantly decreased”.

As for `C[C@@H](N)[C@H]1CC[C@H](C(=O)Nc2ccncc2)CC1` [Y27632], the “effect on cell entrapment (cell-in-cell structure formation)” value in experiment [3] was “effect of ROCKs perturbation by RNA depletion was phenocopied”. Besides, the “effect on gene transfer” value in experiment [1] (setting [6]) is recorded as “effect of ROCKs perturbation by RNA depletion was phenocopied”.

For the compound `Cc1c2oc3c(C)ccc(C(=O)N[C@@H]4C(=O)N[C@H](C(C)C)C(=O)N5CCC[C@H]5C(=O)N(C)CC(=O)N(C)[C@@H](C(C)C)C(=O)O[C@@H]4C)c3nc-2c(C(=O)N[C@@H]2C(=O)N[C@H](C(C)C)C(=O)N3CCC[C@H]3C(=O)N(C)CC(=O)N(C)[C@@H](C(C)C)C(=O)O[C@@H]2C)c(N)c1=O` [Actinomycin D] (I: T[dV]P[Sar][NMeV] / II: T[dV]P[Sar][NMeV]; ester I:1-I:C, II:1-II:C; linker I:N-II:N via Actinocin(9to1)), in experiment [4], the “effect on number/frequency of CIC structures” value is on record as “significantly increased”, the “average duration of CIC structures” value worked out at 6.04 h and the “time at which CIC structures were concentrated” value (“time” below) lay in the range of 9.2 to 15.3 h. Moreover, in experiment [1], the “effect on gene transfer” value is “prevents” and the gene transfer percentage amounted to 1.5%. The “average CIC structure duration” value in experiment [5] (100 μM Hygromycin B, 20 μM Actinomycin D, or combination, 1 focus field) amounted to 2.1 h. For the same compound, the “time” value in experiment [5] (100 μM Hygromycin B, 20 μM Actinomycin D, or combination) lay within 2.9 to 5.1 h. The “effect on CIC structures (induction, frequency)” value in experiment [5] is recorded as “induced”.

With `Cc1cn([C@H]2C=C[C@@H](CO)O2)c(=O)[nH]c1=O` [Stavudine], the IC50 in experiment [1] (later used as positive control of the screen, read-out: IC50 as potential tangocytosis inhibitor) stood at 1.83 µM.

Turning to `COc1cccc2c1C(=O)c1c(O)c3c(c(O)c1C2=O)C[C@@](O)(C(=O)CO)C[C@@H]3O[C@H]1C[C@H](N)[C@H](O)[C@H](C)O1` [Doxorubicin], in experiment [4], the “effect on number/frequency of CIC structures” value is reported as “most CIC structure formation; also recorded: significantly increased”, the “average duration of CIC structures” value came to 11.5 h, the “time” value was in the range of 13.6 to 25.1 h and the “effect on CIC structure duration” value is listed as “significantly higher; also recorded: significantly increased”. Moreover, the “effect on gene transfer” value in experiment [1] (setting [6]) is “inhibiting”.

As a reminder, the IC50 is the concentration that inhibits the measured activity by half.
